The test system of this experiment is 425362-245-T-J1 tumor spheroids, viability % test/control. Kind of experiment: Anticancer human tumor 425362-245-T-J1 patient-derived melanoma cell line growth inhibition. Particulars: spheroids with HUVEC and MSC; for viability, T/C: stronger effect = lower value. In outline:
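Complex tumor spheroids combined malignant cells with endothelial cells and mesenchymal stem cells. DNA-damaging drugs and DNA repair inhibitors were tested alone and in combination, at half-log dilutions down from clinical Cmax (top 10 microM if Cmax unknown), 0.25% DMSO final.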

Usually IC50 stands for the concentration that inhibits the measured activity by half. What is called viability, T/C is the ratio of treated to control.

Structures are written as SMILES. “And” between values parts separate entries of the source, which are not always exact repeats. Identical values can stand only once.
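Note: spheroids exposed to agents for 7 days.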

Take `CC1COCCN1c1cc(-c2ccnn2C)c2ccnc(-c3ccn[nH]3)c2n1` (centres undefined) + Cn1nnc2c(C(N)=O)ncn2c1=O: the IC50 (curve of first compound, second compound 1 µM) was less than 31.6 nM; the concentration for half-maximal inhibition (IC50) (curve of first compound, second compound 3.16 µM) is less than 31.6 nM; the IC50 (curve of first compound, second compound 10 µM) is less than 31.6 nM; the IC50 (curve of first compound, second compound 31.6 µM) was less than 31.6 nM; the IC50 (curve of first compound, second compound 100 µM) was less than 31.6 nM. The viability, T/C (second compound 1 µM, first compound 0.0316 µM) is 34%; the viability, T/C (second compound 1 µM, first compound 0.1 µM) was 9.93%; the viability, T/C (second compound 1 µM, first compound 0.316 µM) was 9.37%; the viability, T/C (second compound 1 µM, first compound 1 µM) is 7.42%; the viability, T/C (second compound 1 µM, first compound 3.16 µM) was 8.52%; the viability, T/C (second compound 1 µM, first compound 10 µM) was 7.26%. The viability, T/C is, setting by setting: (second compound 3.16 µM, first compound 0.0316 µM) 46%; (second compound 3.16 µM, first compound 0.1 µM) 13.1%; (second compound 3.16 µM, first compound 0.316 µM) 8.7%; (second compound 3.16 µM, first compound 1 µM) 8.72%; (second compound 3.16 µM, first compound 3.16 µM) 9.76%; (second compound 3.16 µM, first compound 10 µM) 9.55%. The viability, T/C by setting is: (second compound 10 µM, first compound 0.0316 µM) 33.1%; (second compound 10 µM, first compound 0.1 µM) 12.4%; (second compound 10 µM, first compound 0.316 µM) 6.43%; (second compound 10 µM, first compound 1 µM) 8.73%; (second compound 10 µM, first compound 3.16 µM) 8.17%; (second compound 10 µM, first compound 10 µM) 7.97%. The viability, T/C was 41.4% (second compound 31.6 µM, first compound 0.0316 µM); 10.8% (second compound 31.6 µM, first compound 0.1 µM); 8% (second compound 31.6 µM, first compound 0.316 µM); 8.25% (second compound 31.6 µM, first compound 1 µM); 8.57% (second compound 31.6 µM, first compound 3.16 µM); 9.27% (second compound 31.6 µM, first compound 10 µM). For the same compound, the viability, T/C reads like this: (second compound 100 µM, first compound 0.0316 µM) 16%; (second compound 100 µM, first compound 0.1 µM) 8.9%; (second compound 100 µM, first compound 0.316 µM) 6.62%; (second compound 100 µM, first compound 1 µM) 5.43%; (second compound 100 µM, first compound 3.16 µM) 8.9%; (second compound 100 µM, first compound 10 µM) 6.85%.
Consider `Cn1ncnc1[C@H]1c2n[nH]c(=O)c3cc(F)cc(c23)N[C@@H]1c1ccc(F)cc1` + COc1cc2c(cc1O)CCNC21CSC2c3c(OC(C)=O)c(C)c4c(c3C(COC1=O)N1C(O)C3Cc5cc(C)c(OC)c(O)c5C(C21)N3C)OCO4, for which the IC50 is 12.5 nM (curve of first compound, second compound 30 pM); less than 9.49 nM (curve of first compound, second compound 94.9 pM); less than 9.49 nM (curve of first compound, second compound 0.0003 µM); less than 9.49 nM (curve of first compound, second compound 0.000949 µM); less than 9.49 nM (curve of first compound, second compound 0.003 µM). Besides, the viability, T/C by setting is: (second compound 30 pM, first compound 0.00949 µM) 56.7%; (second compound 30 pM, first compound 0.03 µM) 30.3%; (second compound 30 pM, first compound 0.0949 µM) 19.6%; (second compound 30 pM, first compound 0.3 µM) 13.2%; (second compound 30 pM, first compound 0.949 µM) 6.87%; (second compound 30 pM, first compound 3 µM) 1.96%. For the same compound, the viability, T/C (second compound 94.9 pM, first compound 0.00949 µM) was 42.5%; the viability, T/C (second compound 94.9 pM, first compound 0.03 µM) was 20%; the viability, T/C (second compound 94.9 pM, first compound 0.0949 µM) is 14.8%; the viability, T/C (second compound 94.9 pM, first compound 0.3 µM) is 9.34%; the viability, T/C (second compound 94.9 pM, first compound 0.949 µM) was 4.06%; the viability, T/C (second compound 94.9 pM, first compound 3 µM) was 1.23%. For the same compound, the viability, T/C reads like this: (second compound 0.0003 µM, first compound 0.00949 µM) 25.2%; (second compound 0.0003 µM, first compound 0.03 µM) 6.95%; (second compound 0.0003 µM, first compound 0.0949 µM) 3.81%; (second compound 0.0003 µM, first compound 0.3 µM) 4.9%; (second compound 0.0003 µM, first compound 0.949 µM) 1.34%; (second compound 0.0003 µM, first compound 3 µM) 0.77%. In addition, the viability, T/C runs as follows: (second compound 0.000949 µM, first compound 0.00949 µM) 0.45%; (second compound 0.000949 µM, first compound 0.03 µM) 0.42%; (second compound 0.000949 µM, first compound 0.0949 µM) 0.27%; (second compound 0.000949 µM, first compound 0.3 µM) 0.14%; (second compound 0.000949 µM, first compound 0.949 µM) 0.13%; (second compound 0.000949 µM, first compound 3 µM) 0.22%. Moreover, the viability, T/C runs as follows: (second compound 0.003 µM, first compound 0.00949 µM) 0.34%; (second compound 0.003 µM, first compound 0.03 µM) 0.37%; (second compound 0.003 µM, first compound 0.0949 µM) 0.33%; (second compound 0.003 µM, first compound 0.3 µM) 0.35%; (second compound 0.003 µM, first compound 0.949 µM) 0.3%; (second compound 0.003 µM, first compound 3 µM) 0.36%.
As to `CC1COCCN1c1cc(-c2ccnn2C)c2ccnc(-c3ccn[nH]3)c2n1` (centres undefined), the viability, T/C runs as follows: (compound 0.0316 µM) 34.4% and 43.6% and 45.5%; (compound 0.1 µM) 13.7% and 12.7% and 17.3%; (compound 0.316 µM) 7.51% and 9.92% and 13.6%; (compound 1 µM) 6.44% and 8.46% and 7.34%; (compound 3.16 µM) 6.81% and 10.8% and 7.05%; (compound 10 µM) 8.79% and 9.71% and 7.27%. The IC50 (curve of compound) was less than 31.6 nM.
For `Cc1cc(C)c(CNC(=O)c2cc(-c3ccc(CN4CCOCC4)cc3)cc3c2cnn3C2CCCC2)c(=O)[nH]1`, the viability, T/C (compound 0.0316 µM) was 101% and 97.2% and 92.7%; the viability, T/C (compound 0.1 µM) was 93% and 116% and 102%; the viability, T/C (compound 0.316 µM) was 103% and 97.9% and 84.5%; the viability, T/C (compound 1 µM) was 100% and 80.2% and 86.5%; the viability, T/C (compound 3.16 µM) is 81.8% and 49.8% and 46.3%; the viability, T/C (compound 10 µM) was 42.6% and 15.2% and 14.8%. In addition, the concentration for half-maximal inhibition (IC50) (curve of compound) was 8060 nM and 3010 nM and 2860 nM.

These data come from PubChem BioAssay AID1845198 (Molecular Pharmacology Branch, DTP, NCI, 2023).
